Results on 3 compounds are retold here after ChEMBL document CHEMBL1136892, “New 1alpha,25-dihydroxy-19-norvitamin D(3) compounds constrained in a single A-ring conformation: synthesis of the analogues by ring-closing metathesis route and their biological evaluation” (J Med Chem, 2009).

The term Ki denotes a measure of affinity in units of concentration, obtained from inhibition or displacement.

In assay [1] the target is T1, Vitamin D3 receptor (Rattus norvegicus) (UniProt P13053).
T1 sequence (whole entry): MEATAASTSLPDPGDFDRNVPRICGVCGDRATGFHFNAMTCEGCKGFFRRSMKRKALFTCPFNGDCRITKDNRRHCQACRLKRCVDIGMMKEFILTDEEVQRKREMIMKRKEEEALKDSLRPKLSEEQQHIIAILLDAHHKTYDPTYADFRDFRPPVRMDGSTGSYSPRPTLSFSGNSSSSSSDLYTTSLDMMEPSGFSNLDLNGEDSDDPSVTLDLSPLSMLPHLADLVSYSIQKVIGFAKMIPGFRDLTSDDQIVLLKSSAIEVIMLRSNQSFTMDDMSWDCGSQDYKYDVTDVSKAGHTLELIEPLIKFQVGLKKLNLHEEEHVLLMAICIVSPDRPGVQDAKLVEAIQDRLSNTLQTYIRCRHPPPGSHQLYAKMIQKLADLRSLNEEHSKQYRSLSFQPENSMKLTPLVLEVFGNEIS
Nature of the assay: Ratio of ED50 of compound to ED50 of [3H]1-alpha,25-(OH)2D3 for VDR in rat osteosarcoma 17/2.8 cells by 24-hydroxylase gene transcriptional activation assay.

The target of assay [2] is T1, Vitamin D3 receptor (Rattus norvegicus). Nature of the assay: Activity at VDR in rat osteosarcoma 17/2.8 cells assessed as transcriptional activation of 24-hydroxylase gene promoter after 16 hrs by luciferase reporter gene assay. In general terms: A reporter such as luciferase makes a cellular process visible.
Assay [3] deals with Rattus norvegicus. Nature of the assay: Effect on bone calcium mobilization in vitamin D-deficient weanling Sprague-Dawley rat assessed as serum calcium level at 7020 pmol/day, ip administered as 4 consecutive daily doses measured 24 hrs after last dose. The format is functional.
Assay [4] concerns Rattus norvegicus. Nature of the assay: Effect on intestinal calcium transport in vitamin D-deficient weanling Sprague-Dawley rat assessed as increase in ratio of serosal to mucosal calcium level at 780 pmol/day, ip administered as 4 consecutive daily doses measured 24 hrs after last dose by everted gut sac method. The format is functional.
The next assay deals with T2, Vitamin D3 receptor (Rattus norvegicus, UniProt P13053).
T2 sequence (P13053 whole entry): T1 sequence (whole entry)
Nature of the assay: Displacement of [3H]1-alpha,25-(OH)2D3 from rat recombinant full length VDR. For orientation: Displacement assays read how much labelled ligand stays bound in the presence of the test substance.

For assay [5], the target named is T1, Vitamin D3 receptor (Rattus norvegicus). Nature of the assay: Ratio of Ki of the drug to Ki of [3H]1-alpha,25-(OH)2D3 for rat recombinant full length VDR.
Assay [6] relates to Rattus norvegicus. Nature of the assay: Effect on bone calcium mobilization in vitamin D-deficient weanling Sprague-Dawley rat assessed as serum calcium level at 35100 pmol/day, ip administered as 4 consecutive daily doses measured 24 hrs after last dose. Type of assay: functional.
Assay [7] has as its system Rattus norvegicus. Nature of the assay: Effect on intestinal calcium transport in vitamin D-deficient weanling Sprague-Dawley rat assessed as increase in ratio of serosal to mucosal calcium level at 7020 pmol/day, ip administered as 4 consecutive daily doses measured 24 hrs after last dose by everted gut sac method. The format is functional.
Assay [8] deals with HL-60. Nature of the assay: Induction of human HL60 cell differentiation into monocytes after 4 days by NBT reduction assay. The format is functional.
In assay [9] the test system is Rattus norvegicus. Nature of the assay: Effect on intestinal calcium transport in vitamin D-deficient weanling Sprague-Dawley rat assessed as increase in ratio of serosal to mucosal calcium level at 35100 pmol/day, ip administered as 4 consecutive daily doses measured 24 hrs after last dose by everted gut sac method. Type of assay: functional.
The test system of assay [10] is Rattus norvegicus. Nature of the assay: Effect on bone calcium mobilization in vitamin D-deficient weanling Sprague-Dawley rat assessed as serum calcium level at 780 pmol/day, ip administered as 4 consecutive daily doses measured 24 hrs after last dose. Type of assay: functional.
The subject of assay [11] is HL-60. Nature of the assay: Ratio of ED50 of drug to ED50 of [3H]1-alpha,25-(OH)2D3 for induction of human HL60 cell differentiation into monocytes by NBT reduction assay. The format is functional.
The subject of assay [12] is Rattus norvegicus. Kind of assay: Effect on intestinal calcium transport in vitamin D-deficient weanling Sprague-Dawley rat assessed as ratio of serosal to mucosal calcium level at 87 pmol/day, ip administered as 4 consecutive daily doses measured 24 hrs after last dose by everted gut sac method. Type of assay: functional.
Assay [13] concerns Rattus norvegicus. Nature of the assay: Effect on intestinal calcium transport in vitamin D-deficient weanling Sprague-Dawley rat assessed as increase in ratio of serosal to mucosal calcium level at 260 pmol/day, ip administered as 4 consecutive daily doses measured 24 hrs after last dose by everted gut sac method. The format is functional.
Assay [14] relates to Rattus norvegicus. Nature of the assay: Effect on intestinal calcium transport in vitamin D-deficient weanling Sprague-Dawley rat assessed as increase in ratio of serosal to mucosal calcium level at 2340 pmol/day, ip administered as 4 consecutive daily doses measured 24 hrs after last dose by everted gut sac method. Type of assay: functional.
The test system of assay [15] is Rattus norvegicus. Kind of assay: Effect on bone calcium mobilization in vitamin D-deficient weanling Sprague-Dawley rat assessed as serum calcium level at 260 pmol/day, ip administered as 4 consecutive daily doses measured 24 hrs after last dose. The format is functional.
The test system of assay [16] is Rattus norvegicus. Kind of assay: Effect on bone calcium mobilization in vitamin D-deficient weanling Sprague-Dawley rat assessed as serum calcium level at 2340 pmol/day, ip administered as 4 consecutive daily doses measured 24 hrs after last dose. The format is functional.
Assay [17] concerns Rattus norvegicus. Kind of assay: Effect on bone calcium mobilization in vitamin D-deficient weanling Sprague-Dawley rat assessed as serum calcium level at 87 pmol/day, ip administered as 4 consecutive daily doses measured 24 hrs after last dose. Type of assay: functional.

With `C=C1/C(=C\C=C2/CCC[C@]3(C)[C@@H]([C@H](C)CCCC(C)(C)O)CC[C@@H]23)C[C@H]2OCC=C2[C@@H]1O`, the values for the Ratio ED50 (in assay [1]; in the assay with HL-60 [11]) were 300 and 330, respectively. Further, the ED50 was 6 ×10⁻⁸ M in assay [2] and 1 ×10⁻⁶ M in the assay with HL-60 [8]. The Activity in the assay with Rattus norvegicus [3] came out at 6.1 mg/dL; in the assay on Rattus norvegicus [4], 11.3 mg/dL; with Rattus norvegicus [6], 9.6 mg/dL; in the assay with Rattus norvegicus [7], 10.2 mg/dL; with Rattus norvegicus [9], 8.7 mg/dL; with Rattus norvegicus [10], 4.3 mg/dL. In addition, on Vitamin D3 receptor, the Ki was 0.06 µM. The Ratio Ki in assay [5] is 600.
For `C=C1/C(=C\C=C2/CCC[C@]3(C)[C@@H]([C@H](C)CCCC(C)(C)O)CC[C@@H]23)C[C@@H](O)C2=CCO[C@H]12`, the results for the Ratio ED50 (in assay [1]; with HL-60 [11]) were 30 and 10, respectively. Further, the ED50 in [2] came to 6 ×10⁻⁹ M; in the assay with HL-60 [8], 3 ×10⁻⁸ M. In addition, the Activity was determined as 4.6 mg/dL in the assay on Rattus norvegicus [3], 9.7 mg/dL in the assay with Rattus norvegicus [4], 13.7 mg/dL with Rattus norvegicus [7] and 4.3 mg/dL with Rattus norvegicus [10]. Also, on Vitamin D3 receptor, the Ki amounted to 0.0002 µM. Besides, the Ratio Ki in [5] was determined as 2.
On to `C=C1/C(=C\C=C2/CCC[C@]3(C)[C@@H]([C@H](C)CCCC(C)(C)O)CC[C@@H]23)C[C@@H](O)C[C@@H]1O` [CALCITRIOL], for which the Activity stood at 8.9 mg/dL with Rattus norvegicus [12]; 7.9 mg/dL with Rattus norvegicus [3]; 11.3 mg/dL with Rattus norvegicus [4]; 9 mg/dL in the assay on Rattus norvegicus [6]; 10.2 mg/dL in the assay with Rattus norvegicus [7]; 8.7 mg/dL in the assay with Rattus norvegicus [9]. Moreover, the Activity in the assay on Rattus norvegicus [13] amounted to 12 mg/dL; in the assay with Rattus norvegicus [14], 10.2 mg/dL; in the assay with Rattus norvegicus [15] it was 5.6 mg/dL; with Rattus norvegicus [16] it was 7.3 mg/dL; in the assay on Rattus norvegicus [10] it was 5.8 mg/dL; in the assay with Rattus norvegicus [17], 4.9 mg/dL. For the same compound, the ED50 was found to be 2 ×10⁻¹⁰ M in assay [2] and 3 ×10⁻⁹ M in the assay with HL-60 [8].
